# Measurements reported in ChEMBL document CHEMBL4651402, “Screening of ~5500 FDA-approved drugs and clinical candidates for anti-SARS-CoV-2 activity” (2021).
# Test system: SARS-CoV-2
# Assay: microbe, parasite or virus in culture
# Conditions: Severe acute respiratory syndrome coronavirus 2, Vero C1008, 48 h
row,Compound,IC50
1,CCc1cccc2c3c([nH]c12)C(CC)(CC(=O)O)OCC3 (configuration not stated) [ETODOLAC],> 20 µM
2,CCOC(=O)C(=O)Nc1nc(-c2ccc(OC)cc2)cs1 [TIOXAMAST],> 20 µM
3,COc1ccccc1O [GUAIACOL],> 20 µM
4,c1ccc2ncccc2c1 [QUINOLINE],> 20 µM
5,CC(=O)O[C@H]1CC[C@@]2(C)C(=CC(=O)[C@@H]3[C@@H]2CC[C@]2(C)C(=O)CC[C@@H]32)C1,> 20 µM
6,CC1(C)OC2CC(=O)OCC23C1CC(=O)C1(C)C3CCC2(C)C(c3ccoc3)OC(=O)C3OC321 (configuration not stated),> 20 µM
7,COc1ccc2c(c1)C(C(=O)N(Cc1ccc(N(C)C)cc1)c1ccc(C(C)C)cc1)CCC2 (configuration not stated),> 20 µM
8,CC[C@@]1(O)C(=O)OCc2c1cc1n(c2=O)Cc2cc3ccccc3nc2-1 [CAMPTOTHECIN],> 20 µM
9,CCCCCCCCCCC[C@@H](C[C@@H]1OC(=O)[C@H]1CCCCCC)OC(=O)[C@H](CC(C)C)NC=O [ORLISTAT],> 20 µM
10,Cc1c(Cl)cccc1Nc1ccccc1C(=O)O [TOLFENAMIC ACID],> 20 µM
11,NC(=O)c1ccc(N)nc1 [6-AMINONICOTINAMIDE],> 20 µM
12,N#CCC1(n2cc(-c3ncnc4[nH]ccc34)cn2)CN(C2CCN(C(=O)c3ccnc(C(F)(F)F)c3F)CC2)C1 [ITACITINIB],> 20 µM
13,Cc1nc(C)c(Cl)c(O)c1Cl [CLOPIDOL],> 20 µM
14,Cc1cc(Nc2nc(N[C@@H](C)c3ncc(F)cn3)ncc2Cl)[nH]n1 [AZD-1480],> 20 µM
15,COc1c2occc2cc2ccc(=O)oc12 [METHOXSALEN],> 20 µM
16,CC1C(=O)OC2C(O)C34C5CC(C(C)(C)C)C36C(OC(=O)C6O)OC4(C(=O)O5)C12O (configuration not stated),> 20 µM
17,CN(C)Cc1c(C(=O)NCCOc2ccc(C(=O)NO)cc2)oc2ccccc12 [ABEXINOSTAT],> 20 µM
18,CC(C)(C)C(=O)Oc1ccc(S(=O)(=O)Nc2ccccc2C(=O)NCC(=O)O)cc1,> 20 µM
19,CN(C(=O)CCCOc1ccc2[nH]c(=O)ccc2c1)C1CCCCC1 [CILOSTAMIDE],> 20 µM
20,C[C@]12CCC3C(CCC4=C(Cl)C(=O)CC[C@@]43C)C1CCC2O (some centres not stated),> 20 µM
21,CC[n+]1c(-c2ccccc2)c2cc(N)ccc2c2ccc(N)cc21 [HOMIDIUM],> 20 µM
22,CC(=O)OCC(=O)[C@@]1(O)CC[C@H]2[C@@H]3CCC4=CC(=O)CC[C@]4(C)C3(F)[C@@H](O)C[C@@]21C (some centres not stated),> 20 µM
23,CC(=O)OCC(=O)[C@@]1(O)[C@H](C)CC2C3CCC4=CC(=O)C=CC4(C)[C@@]3(F)C(O)CC21C (some centres not stated),> 20 µM

row,Compound,IC50
1,CC(=C(CCO)SSCC1CCCO1)N(C=O)Cc1cnc(C)nc1N (configuration not stated),> 20 µM
2,Cn1cnc([N+](=O)[O-])c1Sc1ncnc2[nH]cnc12 [AZATHIOPRINE],> 20 µM
3,O=C(O)c1cccnc1Nc1cccc(C(F)(F)F)c1 [NIFLUMIC ACID],> 20 µM
4,C[C@]1(Cn2ccnn2)[C@H](C(=O)O)N2C(=O)C[C@H]2S1(=O)=O [TAZOBACTAM],> 20 µM
5,CCOc1cc(-c2nccc3cc(OC)c(OC)cc23)cc(OCC)c1OCC [OCTAVERINE],> 20 µM
6,Nc1ncc(-c2ccncc2)nc1Nc1ccc2[nH]ccc2c1 [AKN-028],> 20 µM
7,Nc1ncnc2c1ccn2[C@@H]1O[C@H](CO)[C@@H](O)[C@H]1O [TUBERCIDIN],> 20 µM
8,CC(=O)NC(CCC(N)=O)C(=O)O (configuration not stated),> 20 µM
9,Nc1cccc2c1CN(C1CCC(=O)NC1=O)C2=O (configuration not stated) [LENALIDOMIDE],> 20 µM
10,CN1CCC/C1=N\C(=N\c1ccccc1)N1CCOCC1 [LINOGLIRIDE],> 20 µM
11,CO[C@H]1[C@H](O)[C@@H](O)[C@H](O)[C@H](O)[C@H]1O [QUEBRACHITOL],> 20 µM
12,O=C1c2c(O)ccc(O)c2C(=O)c2c(NCCNCCO)ccc(NCCNCCO)c21 [MITOXANTRONE],> 20 µM
13,CC(=O)C(=O)O [PYRUVATE],> 20 µM
14,CO[C@@H]1[C@H](OP(=O)(OC[C@H]2O[C@@H](n3cnc4c(N)ncnc43)C[C@@H]2O)SCOC(=O)OC(C)C)[C@@H](CO)O[C@H]1n1ccc(=O)[nH]c1=O (some centres not stated) [INARIGIVIR SOPROXIL],> 20 µM
15,CN1C2CCC1CC(OC(c1ccccc1)c1ccccc1N)C2 (configuration not stated),> 20 µM
16,C[N+](C)(C)CCCCCCCCCC[N+](C)(C)C [DECAMETHONIUM],> 20 µM
17,O=C(OC(C(F)(F)F)C(F)(F)F)N1CCN(Cc2ccc(C(F)(F)F)cc2N2CCCC2)CC1 [ELCUBRAGISTAT],> 20 µM
18,O[C@@H]1CO[C@H]2[C@@H]1OC[C@@H]2O [ISOSORBIDE],> 20 µM
19,CC(C)(C)C(O)(COc1ccc(Cl)cc1)Cn1cncn1 (configuration not stated),> 20 µM
20,CCC/N=C1\S/C(=C\c2ccc(OC[C@H](O)CO)c(Cl)c2)C(=O)N1c1ccccc1C [PONESIMOD],> 20 µM
21,OC[C@H]1O[C@@](CO)(O[C@H]2O[C@H](CO)[C@@H](O)[C@H](O)[C@H]2O)[C@@H](O)[C@@H]1O [SUCROSE],> 20 µM
22,C=C(C)[C@@H]1CCC(C)=C[C@H]1c1c(O)cc(CCCCC)cc1O [CANNABIDIOL],> 20 µM
23,Cc1ccc2c([nH]c(=O)c3c(=O)cc(C(=O)OCCC(C)C)oc32)c1C,> 20 µM

# Same assay, conditions: Severe acute respiratory syndrome coronavirus 2, Vero C1008, 48 h, read-out: pIC50 (converted)
row,Compound,IC50
1,CCc1cccc2c3c([nH]c12)C(CC)(CC(=O)O)OCC3 (configuration not stated) [ETODOLAC],> 20 µM
2,CCOC(=O)C(=O)Nc1nc(-c2ccc(OC)cc2)cs1 [TIOXAMAST],> 20 µM
3,COc1ccccc1O [GUAIACOL],> 20 µM
4,c1ccc2ncccc2c1 [QUINOLINE],> 20 µM
5,CC(=O)O[C@H]1CC[C@@]2(C)C(=CC(=O)[C@@H]3[C@@H]2CC[C@]2(C)C(=O)CC[C@@H]32)C1,> 20 µM
6,CC1(C)OC2CC(=O)OCC23C1CC(=O)C1(C)C3CCC2(C)C(c3ccoc3)OC(=O)C3OC321 (configuration not stated),> 20 µM
7,COc1ccc2c(c1)C(C(=O)N(Cc1ccc(N(C)C)cc1)c1ccc(C(C)C)cc1)CCC2 (configuration not stated),> 20 µM
8,CC[C@@]1(O)C(=O)OCc2c1cc1n(c2=O)Cc2cc3ccccc3nc2-1 [CAMPTOTHECIN],> 20 µM
9,CCCCCCCCCCC[C@@H](C[C@@H]1OC(=O)[C@H]1CCCCCC)OC(=O)[C@H](CC(C)C)NC=O [ORLISTAT],> 20 µM
10,Cc1c(Cl)cccc1Nc1ccccc1C(=O)O [TOLFENAMIC ACID],> 20 µM
11,NC(=O)c1ccc(N)nc1 [6-AMINONICOTINAMIDE],> 20 µM
12,N#CCC1(n2cc(-c3ncnc4[nH]ccc34)cn2)CN(C2CCN(C(=O)c3ccnc(C(F)(F)F)c3F)CC2)C1 [ITACITINIB],> 20 µM
13,Cc1nc(C)c(Cl)c(O)c1Cl [CLOPIDOL],> 20 µM
14,Cc1cc(Nc2nc(N[C@@H](C)c3ncc(F)cn3)ncc2Cl)[nH]n1 [AZD-1480],> 20 µM
15,COc1c2occc2cc2ccc(=O)oc12 [METHOXSALEN],> 20 µM
16,CC1C(=O)OC2C(O)C34C5CC(C(C)(C)C)C36C(OC(=O)C6O)OC4(C(=O)O5)C12O (configuration not stated),> 20 µM
17,CN(C)Cc1c(C(=O)NCCOc2ccc(C(=O)NO)cc2)oc2ccccc12 [ABEXINOSTAT],> 20 µM
18,CC(C)(C)C(=O)Oc1ccc(S(=O)(=O)Nc2ccccc2C(=O)NCC(=O)O)cc1,> 20 µM
19,CN(C(=O)CCCOc1ccc2[nH]c(=O)ccc2c1)C1CCCCC1 [CILOSTAMIDE],> 20 µM
20,C[C@]12CCC3C(CCC4=C(Cl)C(=O)CC[C@@]43C)C1CCC2O (some centres not stated),> 20 µM
21,CC[n+]1c(-c2ccccc2)c2cc(N)ccc2c2ccc(N)cc21 [HOMIDIUM],> 20 µM
22,CC(=O)OCC(=O)[C@@]1(O)CC[C@H]2[C@@H]3CCC4=CC(=O)CC[C@]4(C)C3(F)[C@@H](O)C[C@@]21C (some centres not stated),> 20 µM
23,CC(=O)OCC(=O)[C@@]1(O)[C@H](C)CC2C3CCC4=CC(=O)C=CC4(C)[C@@]3(F)C(O)CC21C (some centres not stated),> 20 µM

row,Compound,IC50
1,CC(=C(CCO)SSCC1CCCO1)N(C=O)Cc1cnc(C)nc1N (configuration not stated),> 20 µM
2,Cn1cnc([N+](=O)[O-])c1Sc1ncnc2[nH]cnc12 [AZATHIOPRINE],> 20 µM
3,O=C(O)c1cccnc1Nc1cccc(C(F)(F)F)c1 [NIFLUMIC ACID],> 20 µM
4,C[C@]1(Cn2ccnn2)[C@H](C(=O)O)N2C(=O)C[C@H]2S1(=O)=O [TAZOBACTAM],> 20 µM
5,CCOc1cc(-c2nccc3cc(OC)c(OC)cc23)cc(OCC)c1OCC [OCTAVERINE],> 20 µM
6,Nc1ncc(-c2ccncc2)nc1Nc1ccc2[nH]ccc2c1 [AKN-028],> 20 µM
7,Nc1ncnc2c1ccn2[C@@H]1O[C@H](CO)[C@@H](O)[C@H]1O [TUBERCIDIN],> 20 µM
8,CC(=O)NC(CCC(N)=O)C(=O)O (configuration not stated),> 20 µM
9,Nc1cccc2c1CN(C1CCC(=O)NC1=O)C2=O (configuration not stated) [LENALIDOMIDE],> 20 µM
10,CN1CCC/C1=N\C(=N\c1ccccc1)N1CCOCC1 [LINOGLIRIDE],> 20 µM
11,CO[C@H]1[C@H](O)[C@@H](O)[C@H](O)[C@H](O)[C@H]1O [QUEBRACHITOL],> 20 µM
12,O=C1c2c(O)ccc(O)c2C(=O)c2c(NCCNCCO)ccc(NCCNCCO)c21 [MITOXANTRONE],> 20 µM
13,CC(=O)C(=O)O [PYRUVATE],> 20 µM
14,CO[C@@H]1[C@H](OP(=O)(OC[C@H]2O[C@@H](n3cnc4c(N)ncnc43)C[C@@H]2O)SCOC(=O)OC(C)C)[C@@H](CO)O[C@H]1n1ccc(=O)[nH]c1=O (some centres not stated) [INARIGIVIR SOPROXIL],> 20 µM
15,CN1C2CCC1CC(OC(c1ccccc1)c1ccccc1N)C2 (configuration not stated),> 20 µM
16,C[N+](C)(C)CCCCCCCCCC[N+](C)(C)C [DECAMETHONIUM],> 20 µM
17,O=C(OC(C(F)(F)F)C(F)(F)F)N1CCN(Cc2ccc(C(F)(F)F)cc2N2CCCC2)CC1 [ELCUBRAGISTAT],> 20 µM
18,O[C@@H]1CO[C@H]2[C@@H]1OC[C@@H]2O [ISOSORBIDE],> 20 µM
19,CC(C)(C)C(O)(COc1ccc(Cl)cc1)Cn1cncn1 (configuration not stated),> 20 µM
20,CCC/N=C1\S/C(=C\c2ccc(OC[C@H](O)CO)c(Cl)c2)C(=O)N1c1ccccc1C [PONESIMOD],> 20 µM
21,OC[C@H]1O[C@@](CO)(O[C@H]2O[C@H](CO)[C@@H](O)[C@H](O)[C@H]2O)[C@@H](O)[C@@H]1O [SUCROSE],> 20 µM
22,C=C(C)[C@@H]1CCC(C)=C[C@H]1c1c(O)cc(CCCCC)cc1O [CANNABIDIOL],> 20 µM
23,Cc1ccc2c([nH]c(=O)c3c(=O)cc(C(=O)OCCC(C)C)oc32)c1C,> 20 µM
